Legend:
Experiment in all cases: p-nitrophenol release at […] nm, non-linear fit
Format in all cases: biochemical, Thermomicrobium roseum
[1] = system: T1, TrL3; details: 60 °C; Tris-HCl 50 mM pH 8.0; gum arabic and sodium deoxycholate emulsion; read-out: 4-Nitrophenyl benzoate
T1 construct: gene EstE7; N-terminal lid Asp13-Gly57 of 3K6K fused to TrLipE Val54-Ala323; His-tagged, E. coli BL21, 35-37 kDa

[2] = system: T2, TrL17; details: 60 °C; Tris-HCl 50 mM pH 8.0; gum arabic and sodium deoxycholate emulsion; read-out: 4-Nitrophenyl benzoate
T2 construct: gene EstN7; N-terminal lid Lys2-Glu45 of 7B4Q fused to TrLipE Val54-Ala323; His-tagged, E. coli BL21, 35-37 kDa

[3] = system: T3, TrL18; details: 60 °C; Tris-HCl 50 mM pH 8.0; gum arabic and sodium deoxycholate emulsion; read-out: 4-Nitrophenyl benzoate
T3 construct: N-terminal lid Ala2-Glu45 of 7UAY fused to TrLipE Val54-Ala323; His-tagged, E. coli BL21, 35-37 kDa

[4] = system: T4, TrL2; details: 60 °C; Tris-HCl 50 mM pH 8.0; gum arabic and sodium deoxycholate emulsion; read-out: 4-Nitrophenyl benzoate
T4 construct: gene EstE5; N-terminal lid Ala2-Asp42 of 3H18 fused to TrLipE Val54-Ala323; His-tagged, E. coli BL21, 35-37 kDa

[5] = system: T5, TrL16; details: 60 °C; Tris-HCl 50 mM pH 8.0; gum arabic and sodium deoxycholate emulsion; read-out: 4-Nitrophenyl decanoate
T5 construct: gene PMGL3; N-terminal lid Asn2-Cys49 of 7B1X fused to TrLipE Val54-Ala323; His-tagged, E. coli BL21, 35-37 kDa

[6] = system: T6, TrL8; details: 60 °C; Tris-HCl 50 mM pH 8.0; gum arabic and sodium deoxycholate emulsion; read-out: 4-Nitrophenyl decanoate
T6 construct: gene ThaEst2349; N-terminal lid Pro2-Asp49 of 4V2I fused to TrLipE Val54-Ala323; His-tagged, E. coli BL21, 35-37 kDa

[7] = system: T7, TrL7; details: 60 °C; Tris-HCl 50 mM pH 8.0; gum arabic and sodium deoxycholate emulsion; read-out: 4-Nitrophenyl laurate
T7 construct: gene SshEstI; N-terminal lid Pro2-Lys45 of 4P9N fused to TrLipE Val54-Ala323; His-tagged, E. coli BL21, 35-37 kDa

[8] = system: T8, TrL5; details: 60 °C; Tris-HCl 50 mM pH 8.0; gum arabic and sodium deoxycholate emulsion; read-out: 4-Nitrophenyl laurate
T8 construct: N-terminal lid Asn23-Pro66 of 4C89 fused to TrLipE Val54-Ala323; His-tagged, E. coli BL21, 35-37 kDa

[9] = system: T9, TrL9; details: 60 °C; Tris-HCl 50 mM pH 8.0; gum arabic and sodium deoxycholate emulsion; read-out: 4-Nitrophenyl palmitate
T9 construct: gene Est8; N-terminal lid Ala2-Gly49 of 4YPV fused to TrLipE Val54-Ala323; His-tagged, E. coli BL21, 35-37 kDa

[10] = system: T10, TrL12; details: 60 °C; Tris-HCl 50 mM pH 8.0; gum arabic and sodium deoxycholate emulsion; read-out: 4-Nitrophenyl palmitate
T10 construct: gene TmelEST2; N-terminal lid Gln34-Glu74 of 5MIF fused to TrLipE Val54-Ala323; His-tagged, E. coli BL21, 35-37 kDa

[11] = system: T11, TrL4; details: 60 °C; Tris-HCl 50 mM pH 8.0; gum arabic and sodium deoxycholate emulsion; read-out: 4-Nitrophenyl palmitate
T11 construct: gene LipW; N-terminal lid Val2-Gly53 of 3QH4 fused to TrLipE Val54-Ala323; His-tagged, E. coli BL21, 35-37 kDa

[12] = system: T12, TrL11; details: 60 °C; Tris-HCl 50 mM pH 8.0; gum arabic and sodium deoxycholate emulsion; read-out: 4-Nitrophenyl palmitate
T12 construct: gene E53; N-terminal lid Lys4-Gly69 of 5HC0 fused to TrLipE Val54-Ala323; His-tagged, E. coli BL21, 35-37 kDa

[13] = system: T13, TrL1; details: 60 °C; Tris-HCl 50 mM pH 8.0; gum arabic and sodium deoxycholate emulsion; read-out: 4-Nitrophenyl palmitate
T13 construct: gene EST2; N-terminal lid Leu3-Pro44 of 1EVQ fused to TrLipE Val54-Ala323; His-tagged, E. coli BL21, 35-37 kDa

For `O=C(Oc1ccc([N+](=O)[O-])cc1)c1ccccc1` [4-Nitrophenyl benzoate], the Km [1] was 37 µM, the Km [2] was 60.2 µM and the Km [3] was 44.9 µM. The Km [4] was 50 µM.
Work on `CCCCCCCCCC(=O)Oc1ccc([N+](=O)[O-])cc1` [4-Nitrophenyl decanoate] yielded a Km [5] of 44.7 µM and a Km [6] of 21.8 µM.
For `CCCCCCCCCCCC(=O)Oc1ccc([N+](=O)[O-])cc1` [4-Nitrophenyl laurate], the Km [7] was 12.8 µM and the Km [8] was 21.1 µM.
Compound `CCCCCCCCCCCCCCCC(=O)Oc1ccc([N+](=O)[O-])cc1` [4-Nitrophenyl palmitate] has a Km [9] of 23.2 µM, a Km [10] of 13.7 µM and a Km [11] of 7.46 µM. For the same compound, the Km [12] was 77.4 µM and the Km [13] was 55.3 µM.
